These results are taken from ChEMBL document CHEMBL5113478, “7-Azaindole, 2,7-diazaindole, and 1H-pyrazole as core structures for novel anticancer agents with potential chemosensitizing properties” (Eur J Med Chem, 2022).

Common to all, as to type: functional
Experiment [1] relates to SAOS-2. As to the kind of experiment: Antiproliferative activity against human SAOS-2 cells assessed as […] cell proliferation at 10 uM incubated for 48 hrs in presence of 15 uM of CDDP by WST-1 assay relative to control. (In general: Tetrazolium dyes change colour on reduction, which living cells bring about.)
The test system of experiment [2] is HT-29. As to the kind of experiment: Antiproliferative activity against human HT-29 cells assessed as […] cell proliferation at 10 uM incubated for 48 hrs in presence of 15 uM of CDDP by WST-1 assay relative to control.
The test system of experiment [3] is Jurkat. Briefly: Antiproliferative activity against human Jurkat cells assessed as […] cell proliferation at 10 uM incubated for 48 hrs in presence of 2 uM of CDDP by WST-1 assay relative to control.
Experiment [4] deals with A2780. Briefly: Antiproliferative activity against human A2780 cells assessed as […] cell proliferation at 10 uM incubated for 48 hrs by WST-1 assay relative to control.
Experiment [5] has as its system HeLa. As to the kind of experiment: Antiproliferative activity against human HeLa cells assessed as […] cell proliferation at 10 uM incubated for 48 hrs by WST-1 assay relative to control.
For experiment [6], the system named is A549. Briefly: Antiproliferative activity against human A549 cells assessed as […] cell proliferation at 10 uM incubated for 48 hrs by WST-1 assay relative to control.
Experiment [7] relates to A549. As to the kind of experiment: Antiproliferative activity against human A549 cells assessed as […] cell proliferation at 10 uM incubated for 48 hrs in presence of 15 uM of CDDP by WST-1 assay relative to control.
In experiment [8] the test system is Jurkat. As to the kind of experiment: Antiproliferative activity against human Jurkat cells assessed as […] cell proliferation at 10 uM incubated for 48 hrs by WST-1 assay relative to control.
Experiment [9] concerns MOLT-4. Briefly: Antiproliferative activity against human MOLT-4 cells assessed as […] cell proliferation at 10 uM incubated for 48 hrs by WST-1 assay relative to control.
The subject of experiment [10] is MCF7. As to the kind of experiment: Antiproliferative activity against human MCF7 cells assessed as […] cell proliferation at 10 uM incubated for 48 hrs in presence of 10 uM of CDDP by WST-1 assay relative to control.
Experiment [11] has as its system MCF7. As to the kind of experiment: Antiproliferative activity against human MCF7 cells assessed as […] cell proliferation at 10 uM incubated for 48 hrs by WST-1 assay relative to control.
In experiment [12] the test system is PANC-1. As to the kind of experiment: Antiproliferative activity against human PANC-1 cells assessed as […] cell proliferation at 10 uM incubated for 48 hrs by WST-1 assay relative to control.
In experiment [13] the test system is PANC-1. As to the kind of experiment: Antiproliferative activity against human PANC-1 cells assessed as […] cell proliferation at 10 uM incubated for 48 hrs in presence of 15 uM of CDDP by WST-1 assay relative to control.
Experiment [14] concerns HeLa. Briefly: Antiproliferative activity against human HeLa cells assessed as […] cell proliferation at 10 uM incubated for 48 hrs in presence of 15 uM of CDDP by WST-1 assay relative to control.
Experiment [15] concerns A2780. As to the kind of experiment: Antiproliferative activity against human A2780 cells assessed as […] cell proliferation at 10 uM incubated for 48 hrs in presence of 2 uM of CDDP by WST-1 assay relative to control.
In experiment [16] the test system is MOLT-4. Briefly: Antiproliferative activity against human MOLT-4 cells assessed as […] cell proliferation at 10 uM incubated for 48 hrs in presence of 2 uM of CDDP by WST-1 assay relative to control.
For experiment [17], the system named is SAOS-2. Briefly: Antiproliferative activity against human SAOS-2 cells assessed as […] cell proliferation at 10 uM incubated for 48 hrs by WST-1 assay relative to control.
Experiment [18] concerns HT-29. Briefly: Antiproliferative activity against human HT-29 cells assessed as […] cell proliferation at 10 uM incubated for 48 hrs by WST-1 assay relative to control.

SMILES strings stand for the structures.

In the case of `CCN(CC)c1ccc(CNC(=O)c2cc(-c3ccc(S(=O)(=O)C(C)C)cc3)[nH]n2)cc1`, the Activity is recorded as 62% with SAOS-2 [1]; 62% in the experiment on HT-29 [2]; 62% in the experiment on Jurkat [3]; 78% with A2780 [4]; 78% in the experiment on HeLa [5]; 78% in the experiment with A549 [6]. Besides, the Activity in the experiment with A549 [7] is recorded as 62%; in the experiment on Jurkat [8] it was 78%; in the experiment with MOLT-4 [9], 78%; in the experiment on MCF7 [10], 62%; with MCF7 [11], 78%; with PANC-1 [12] it was 78%. The Activity with PANC-1 [13] turned out to be 62%; with HeLa [14] it was 62%; in the experiment with A2780 [15], 62%; in the experiment on MOLT-4 [16], 62%; in the experiment with SAOS-2 [17] it was 78%. Besides, the “Cell viability relative to control” value in the experiment with HT-29 [18] is given as 78%.

With `CC(C)S(=O)(=O)c1ccc(-c2cc(-c3nnc(-c4ccccc4)o3)n[nH]2)cc1`, the Activity is 64% in the experiment with SAOS-2 [1]; 64% with HT-29 [2]; 64% in the experiment with Jurkat [3]; 98% in the experiment with A2780 [4]; 98% with HeLa [5]; 98% in the experiment with A549 [6]. Also, the Activity in the experiment with A549 [7] stood at 64%; with Jurkat [8] it was 98%; in the experiment on MOLT-4 [9], 98%; with MCF7 [10], 64%; in the experiment on MCF7 [11] it was 98%; in the experiment on PANC-1 [12], 98%. In addition, the Activity with PANC-1 [13] amounted to 64%; in the experiment on HeLa [14] it was 64%; with A2780 [15], 64%; in the experiment with MOLT-4 [16], 64%; with SAOS-2 [17], 98%. The “Cell viability relative to control” value in the experiment on HT-29 [18] turned out to be 98%.

With `CC(C)S(=O)(=O)c1ccc(-c2cc(C(=O)Nc3ccccc3)n[nH]2)cc1`, the Activity in the experiment with SAOS-2 [1] is 70%; in the experiment with HT-29 [2], 70%; in the experiment on Jurkat [3], 70%; with A2780 [4] it was 107%; in the experiment on HeLa [5], 107%; with A549 [6] it was 107%. Further, the Activity in the experiment with A549 [7] was determined as 70%; with Jurkat [8] it was 107%; in the experiment with MOLT-4 [9], 107%; in the experiment with MCF7 [10], 70%; with MCF7 [11] it was 107%; in the experiment with PANC-1 [12], 107%. Moreover, the Activity was 70% in the experiment on PANC-1 [13]; 70% in the experiment on HeLa [14]; 70% with A2780 [15]; 70% in the experiment on MOLT-4 [16]; 107% in the experiment on SAOS-2 [17]. In the experiment on HT-29 [18], the “Cell viability relative to control” value came out at 107%.

As for `CS(=O)(=O)c1ccc(-c2cnc3[nH]cc(C(=O)NCc4ccccc4)c3c2)cc1`, the Activity in the experiment on SAOS-2 [1] came out at 64%; in the experiment with HT-29 [2] it was 64%; in the experiment on Jurkat [3] it was 64%; with A2780 [4], 89%; in the experiment on HeLa [5] it was 89%; in the experiment on A549 [6], 89%. Besides, the Activity stood at 64% with A549 [7]; 89% with Jurkat [8]; 89% in the experiment with MOLT-4 [9]; 64% in the experiment with MCF7 [10]; 89% in the experiment with MCF7 [11]; 89% with PANC-1 [12]. The Activity was found to be 64% in the experiment on PANC-1 [13]; 64% in the experiment with HeLa [14]; 64% with A2780 [15]; 64% in the experiment on MOLT-4 [16]; 89% in the experiment with SAOS-2 [17]. For the same molecule, in the experiment with HT-29 [18], the “Cell viability relative to control” value is recorded as 89%.

As for `CCN1CCN(C2CCN(C(=O)c3c[nH]c4ncc(-c5ccc(S(=O)(=O)C(C)C)cc5)cc34)CC2)CC1`, the Activity with SAOS-2 [1] is 62%; in the experiment on HT-29 [2], 62%; in the experiment on Jurkat [3], 62%; in the experiment with A2780 [4], 100%; with HeLa [5] it was 100%; with A549 [6], 100%. Also, the Activity in the experiment on A549 [7] was determined as 62%; in the experiment with Jurkat [8], 100%; in the experiment with MOLT-4 [9] it was 100%; with MCF7 [10], 62%; with MCF7 [11], 100%; with PANC-1 [12], 100%. Further, the Activity came out at 62% with PANC-1 [13]; 62% with HeLa [14]; 62% in the experiment with A2780 [15]; 62% in the experiment with MOLT-4 [16]; 100% in the experiment on SAOS-2 [17]. Further, the “Cell viability relative to control” value in the experiment on HT-29 [18] is on record as 100%.

Turning to `CC(C)S(=O)(=O)c1ccc(-c2cnc3[nH]c(C(=O)N4CCC(c5ccccc5)CC4)cc3c2)cc1`, the Activity with SAOS-2 [1] was found to be 64%; in the experiment on HT-29 [2], 64%; in the experiment with Jurkat [3], 64%; with A2780 [4], 92%; in the experiment on HeLa [5], 92%; in the experiment with A549 [6] it was 92%. Also, the Activity in the experiment with A549 [7] came out at 64%; in the experiment with Jurkat [8], 92%; with MOLT-4 [9], 92%; with MCF7 [10], 64%; with MCF7 [11] it was 92%; in the experiment on PANC-1 [12], 92%. The Activity in the experiment with PANC-1 [13] stood at 64%; in the experiment with HeLa [14], 64%; in the experiment on A2780 [15] it was 64%; with MOLT-4 [16] it was 64%; in the experiment on SAOS-2 [17], 92%. In addition, in the experiment with HT-29 [18], the “Cell viability relative to control” value is reported as 92%.

As for `CCN1CCN(C(=O)c2c[nH]c3ncc(-c4ccc(S(=O)(=O)C(C)C)cc4)cc23)CC1`, the Activity is on record as 66% in the experiment on SAOS-2 [1]; 66% in the experiment on HT-29 [2]; 66% with Jurkat [3]; 100% with A2780 [4]; 100% with HeLa [5]; 100% with A549 [6]. Further, the Activity in the experiment with A549 [7] came to 66%; in the experiment on Jurkat [8], 100%; with MOLT-4 [9], 100%; in the experiment with MCF7 [10] it was 66%; with MCF7 [11], 100%; in the experiment on PANC-1 [12], 100%. Moreover, the Activity in the experiment on PANC-1 [13] was 66%; in the experiment with HeLa [14], 66%; in the experiment on A2780 [15], 66%; with MOLT-4 [16], 66%; in the experiment on SAOS-2 [17], 100%. Further, in the experiment with HT-29 [18], the “Cell viability relative to control” value is reported as 100%.

For `CCN(CC)c1ccc(CNC(=O)c2c[nH]c3ncc(-c4ccc(S(C)(=O)=O)cc4)cc23)cc1`, the Activity in the experiment with SAOS-2 [1] is reported as 59%; in the experiment on HT-29 [2], 59%; in the experiment on Jurkat [3], 59%; in the experiment with A2780 [4], 76%; with HeLa [5] it was 76%; in the experiment with A549 [6] it was 76%. Moreover, the Activity in the experiment on A549 [7] is listed as 59%; in the experiment with Jurkat [8], 76%; in the experiment with MOLT-4 [9], 76%; with MCF7 [10], 59%; in the experiment with MCF7 [11], 76%; with PANC-1 [12], 76%. Besides, the Activity in the experiment on PANC-1 [13] stood at 59%; in the experiment on HeLa [14], 59%; with A2780 [15], 59%; in the experiment on MOLT-4 [16], 59%; in the experiment on SAOS-2 [17], 76%. The “Cell viability relative to control” value with HT-29 [18] is 76%.

In the case of `CCN1CCN(C2CCN(C(=O)c3cc4cc(-c5ccc(S(C)(=O)=O)cc5)cnc4[nH]3)CC2)CC1`, the Activity in the experiment on SAOS-2 [1] is listed as 67%; in the experiment with HT-29 [2], 67%; with Jurkat [3], 67%; in the experiment on A2780 [4], 96%; in the experiment on HeLa [5], 96%; in the experiment with A549 [6], 96%. For the same molecule, the Activity in the experiment on A549 [7] stood at 67%; with Jurkat [8], 96%; in the experiment with MOLT-4 [9], 96%; in the experiment on MCF7 [10], 67%; in the experiment with MCF7 [11] it was 96%; in the experiment with PANC-1 [12], 96%. For the same molecule, the Activity in the experiment on PANC-1 [13] is 67%; in the experiment on HeLa [14], 67%; with A2780 [15], 67%; with MOLT-4 [16], 67%; in the experiment with SAOS-2 [17] it was 96%. Also, the “Cell viability relative to control” value in the experiment with HT-29 [18] amounted to 96%.
